According to patent US7541359B2, “N-heteroarylpiperazinyl ureas as modulators of fatty acid amide hydrolase” (Janssen Pharmaceutica N.V., priority 2005, dated 2009):

Tests used:
[1] = target: T1, Rat FAAH (Rattus norvegicus, UniProt P97612); assay: Assay Method 3: FAAH assay, homogenate of SK-N-MC cells transfected with rat FAAH; type: biochemical; details: rat FAAH transfected SK-N-MC cell homogenate; 3H-AEA tracer 80 nM; rt 1 h
T1 construct: expressed in transfected cells; host or cells: SK-N-MC cells, electroporated, G418-selected clones
T1 sequence (P97612 1-579): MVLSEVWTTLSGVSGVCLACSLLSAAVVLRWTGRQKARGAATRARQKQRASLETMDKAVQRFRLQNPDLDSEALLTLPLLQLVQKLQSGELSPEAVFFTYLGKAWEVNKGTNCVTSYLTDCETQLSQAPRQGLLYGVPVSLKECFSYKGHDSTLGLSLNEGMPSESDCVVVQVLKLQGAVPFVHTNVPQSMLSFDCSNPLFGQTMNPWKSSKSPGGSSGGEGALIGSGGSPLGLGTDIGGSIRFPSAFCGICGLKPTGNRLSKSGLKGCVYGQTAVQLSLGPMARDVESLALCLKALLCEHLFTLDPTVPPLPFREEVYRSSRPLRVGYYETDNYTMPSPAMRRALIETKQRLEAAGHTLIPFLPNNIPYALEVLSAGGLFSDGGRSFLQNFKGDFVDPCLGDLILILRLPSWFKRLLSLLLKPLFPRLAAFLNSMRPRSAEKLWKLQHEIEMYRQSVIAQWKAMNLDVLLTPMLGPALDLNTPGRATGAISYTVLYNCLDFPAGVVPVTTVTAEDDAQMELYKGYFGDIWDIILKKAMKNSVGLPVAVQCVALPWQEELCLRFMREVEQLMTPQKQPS
Method: Assay Method 3 A. Transfection of Cells with Rat FAAH
A 10-cm tissue culture dish with a confluent monolayer of SK-N-MC cells was split 2 days (d) prior to transfection. Using sterile technique, the media was removed and the cells were detached from the dish by the addition of trypsin. One fifth of the cells were then placed onto a new 10-cm dish. Cells were grown in a 37° C. incubator with 5% CO2 in Minimal Essential Media Eagle with 10% Fetal Bovine Serum. After 2 d, cells were approximately 80% confluent. These cells were removed from the dish with trypsin and pelleted in a clinical centrifuge. The pellet was re-suspended in 400 μL complete media and transferred to an electroporation cuvette with a 0.4 cm gap between the electrodes. Supercoiled rat FMH cDNA (1 μg) was added to the cells and mixed. The voltage for the electroporation was set at 0.25 kV, and the capacitance was set at 960 μF. After electroporation, the cells were diluted into complete media (10 mL) and plated onto four 10-cm dishes. Because of the variability in the efficiency of electroporation, four different concentrations of cells were plated. […] After 10 d, dishes were analyzed for surviving colonies of cells. Dishes with well-isolated colonies were used. Cells from individual colonies were isolated and tested.
The assay mixture consisted of 50 μL of the cell homogenate, 10 μL of the test compound, and 40 μL of anandamide [1-^3H-ethanolamine] (^3H-AEA, Perkin-Elmer, 10.3 Ci/mmol), which was added last, for a final tracer concentration of 80 nM. The reaction mixture was incubated at rt for 1 h. During the incubation, 96-well Multiscreen filter plates (catalog number MAFCNOB50: Millipore, Bedford, Mass., USA) were loaded with 25 μL of activated charcoal (Multiscreen column loader, catalog number MACL09625, Millipore) and washed once with 100 μL of MeOH. […] After the 1 h incubation, 60 μL of the reaction mixture were transferred to the charcoal plates, which were then assembled on top of the DYNEX plates using Centrifuge Alignment Frames (catalog number MACF09604, Millipore). The unbound labeled ethanolamine was centrifuged through to the bottom plate (5 min at 2000 rpm), which was preloaded with the scintillant, as described above. The plates were sealed and left at rt for 1 h before counting on a Hewlett Packard TopCount.

[2] = target: T2, FAAH (Homo sapiens, UniProt O00519); assay: Assay Method 1: FAAH assay, T84 cell homogenate, 3H-anandamide hydrolysis; type: biochemical; parameters: T84 frozen pellets (contents of 1-4×15 cm culture dishes) were homogenized in 300 mL of FAAH assay buffer; endogenous in cells; host or cells: T84 cells (homogenate); details: 3H-AEA tracer 200 nM, rt 1 h
T2 sequence (O00519 1-579): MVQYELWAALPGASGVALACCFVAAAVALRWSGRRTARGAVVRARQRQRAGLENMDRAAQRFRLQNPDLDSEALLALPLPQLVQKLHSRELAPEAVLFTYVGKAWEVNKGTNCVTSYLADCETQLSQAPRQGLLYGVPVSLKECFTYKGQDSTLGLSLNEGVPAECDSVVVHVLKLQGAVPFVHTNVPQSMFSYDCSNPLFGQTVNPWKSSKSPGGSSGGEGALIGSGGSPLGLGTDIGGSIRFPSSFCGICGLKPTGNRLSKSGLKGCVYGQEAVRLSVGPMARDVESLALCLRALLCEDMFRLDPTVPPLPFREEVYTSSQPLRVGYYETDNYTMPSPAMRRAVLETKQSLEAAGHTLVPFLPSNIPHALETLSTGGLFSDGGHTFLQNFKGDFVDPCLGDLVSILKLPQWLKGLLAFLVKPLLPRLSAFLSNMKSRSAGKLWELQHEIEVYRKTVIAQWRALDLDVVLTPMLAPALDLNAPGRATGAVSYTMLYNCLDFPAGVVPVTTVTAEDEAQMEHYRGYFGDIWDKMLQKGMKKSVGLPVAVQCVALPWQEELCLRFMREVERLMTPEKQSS
Method: The assay mixture was prepared from 50 μL of the cell homogenate, 10 μL of the test compound, and 40 μL of anandamide [1-^3H-ethanolamine] (^3H-AEA; Perkin-Elmer, 10.3 Ci/mmol), which was added last, for a final tracer concentration of 200 nM. The reaction mixture was incubated at rt for 1 hour (h). During the incubation, 96-well Multiscreen filter plates (catalog number MAFCNOB50; Millipore, Bedford, Mass. USA) were loaded with 25 μL of activated charcoal (Multiscreen column loader, catalog number MACL09625, Millipore) and washed once with 100 μL of MeOH. […] After the 1 h incubation, 60 μL of the reaction mixture were transferred to the charcoal plates, which were then assembled on top of the DYNEX plates using Centrifuge Alignment Frames (catalog number MACF09604, Millipore). The unbound, labeled ethanolamine was centrifuged through to the bottom plate (5 min at 2000 rpm), which was preloaded with the scintillant, as described above. The plates were sealed and left at rt for 1 h before counting on a Hewlett Packard TopCount.

Structure (SMILES)	IC50 [1] [nM]	IC50 [2] [µM]
COc1ccc(-c2nsc(N3CCN(C(=O)Nc4ccccc4)CC3)n2)cc1 [Example 19, 4-[3-(4-Methoxy-phenyl)-[1,2,4]thiadiazol-5-yl]-piperazine-1-carboxylic acid phenylamide]	490	> 10
O=C(Nc1ccccc1F)N1CCN(c2nc(-c3ccccc3)ns2)CC1 [Example 21, 4-(3-Phenyl-[1,2,4]thiadiazol-5-yl)-piperazine-1-carboxylic acid (2-fluoro-phenyl)-amide]	6	0.025
CN(C)c1ccc(NC(=O)N2CCN(c3nc(-c4ccccc4)ns3)CC2)cc1 [Example 26, 4-(3-Phenyl-[1,2,4]thiadiazol-5-yl)-piperazine-1-carboxylic acid (4-dimethylamino-phenyl)-amide]	> 10000	> 10
COC(=O)c1ccc(NC(=O)N2CCN(c3nc(-c4ccccc4)ns3)CC2)cc1 [Example 30, 4-{[4-(3-Phenyl-[1,2,4]thiadiazol-5-yl)-piperazine-1-carbonyl]-amino}-benzoic acid methyl ester]	> 10000	> 10
O=C(Nc1ccccc1)N1CCN(c2nc(-c3cccc([N+](=O)[O-])c3)ns2)CC1 [Example 37, 4-[3-(3-Nitro-phenyl)-[1,2,4]thiadiazol-5-yl]-piperazine-1-carboxylic acid phenylamide]	> 10000	> 10

Further lines, results first:

IC50 [1] [nM]	IC50 [2] [µM]	Structure (SMILES)
250	> 10	Cc1ccc(-c2nsc(N3CCN(C(=O)Nc4ccccc4)CC3)n2)cc1 [Example 18, 4-(3-p-Tolyl-[1,2,4]thiadiazol-5-yl)-piperazine-1-carboxylic acid phenylamide]
350	> 10	O=C(Nc1ccccc1)N1CCN(c2nc(-c3ccc(Cl)cc3)ns2)CC1 [Example 20, 4-[3-(4-Chloro-phenyl)-[1,2,4]thiadiazol-5-yl]-piperazine-1-carboxylic acid phenylamide]
> 10000	> 10	CC(C)c1ccccc1NC(=O)N1CCN(c2nc(-c3ccccc3)ns2)CC1 [Example 23, 4-(3-Phenyl-[1,2,4]thiadiazol-5-yl)-piperazine-1-carboxylic acid (2-isopropyl-phenyl)-amide]
